Data from patent US20250122225A1, “MASP-2 INHIBITORS AND METHODS OF USE” (Omeros Corporation, priority 2023, published 2025).
Where a name gives a salt, the structure may show the parent alone.

Legend:
[1] = molecular target: T1, MASP-2 (CCP1-CCP2-SP) (Homo sapiens, UniProt O00187); test: Enzymatic assay for MASP-2 inhibitory activity (fluorogenic substrate); format: biochemical
T1 construct: 15 μL of Enzyme MASP-2 (CCP1-CCP2-SP) in Assay Buffer
In short: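 MASP-2 (CCP1-CCP2-SP) cleaved a fluorogenic substrate based on the C2 cleavage site in 20 mM HEPES pH 7.4, 140 mM NaCl, 0.1% Tween 20 at room temperature. After 20 min the reaction was stopped with 0.1 M acetic acid and fluorescence read. % activity was normalized to DMSO-only and no-enzyme controls; IC50 taken as Ki.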

[2] = molecular target: T2, human α-thrombin (Homo sapiens, UniProt P00734); test: Enzymatic assay for thrombin (fluorogenic peptide substrate Boc-VPR-AMC); format: biochemical
T2 construct: enzyme (human α-thrombin (BioPharm® Lab.)) in assay buffer; purchased BioPharm® Lab
In short: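 Human α-thrombin was run with the fluorogenic substrate Boc-VPR-AMC in 20 mM Hepes pH 7.4, 140 mM NaCl, 0.1% Tween 20 at room temperature for 20 min, then stopped with 0.1 M acetic acid. % activity was normalized to DMSO and no-enzyme controls. Under linear conditions IC50 equalled Ki, except for tight-binding inhibitors.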

T1 sequence (O00187 445-686 limits assumed): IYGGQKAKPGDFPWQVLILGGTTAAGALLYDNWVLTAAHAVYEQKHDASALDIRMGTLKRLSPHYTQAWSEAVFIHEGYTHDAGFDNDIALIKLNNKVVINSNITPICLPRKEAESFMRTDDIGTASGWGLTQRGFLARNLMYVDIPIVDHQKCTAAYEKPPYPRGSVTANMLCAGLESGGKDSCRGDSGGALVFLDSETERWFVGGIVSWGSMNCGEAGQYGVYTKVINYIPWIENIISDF
T1 sequence (O00187 287-444 partner limits assumed): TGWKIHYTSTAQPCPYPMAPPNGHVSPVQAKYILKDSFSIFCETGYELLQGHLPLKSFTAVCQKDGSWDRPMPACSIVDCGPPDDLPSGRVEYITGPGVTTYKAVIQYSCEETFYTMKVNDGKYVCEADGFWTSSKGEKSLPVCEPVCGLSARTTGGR

SMILES | Ki [1] | Ki [2]
Cc1nc(N)ccc1CNC(=O)[C@@H]1CCc2cnc(NCc3cn4c(n3)CCCC4)c(=O)n21 [Compound 168, (S)-N-((6-amino-2-methylpyridin-3-yl)methyl)-4-oxo-3-(((5,6,7,8-tetrahydroimidazo[1,2-a]pyridin-2-yl)methyl)amino)-4,6,7,8-tetrahydropyrrolo[1,2-a]pyrazine-6-carboxamide trifluoroacetate] | 500 to 2500 nM | 2500 to 10000 nM
Cc1cc(C)cc(CNc2ncc3n(c2=O)[C@H](C(=O)NCc2cc4cnccc4[nH]2)CC3)c1 [Compound 97, (S)—N-((1H-pyrrolo[3,2-c]pyridin-2-yl)methyl)-3-((3,5-dimethylbenzyl)amino)-4-oxo-4,6,7,8-tetrahydropyrrolo[1,2-a]pyrazine-6-carboxamide trifluoroacetate] | < 500 nM | 500 to 2500 nM
Cc1cc(C)cc(CNc2ncc3n(c2=O)[C@H](C(=O)NCc2cc4c(s2)CNC4)CC32CC2)c1 [Compound 126, (S)—N-((5,6-dihydro-4H-thieno[2,3-c]pyrrol-2-yl)methyl)-3′-((3,5-dimethylbenzyl)amino)-4′-oxo-6′,7′-dihydro-4′H-spiro[cyclopropane-1,8′-pyrrolo[1,2-a]pyrazine]-6′-carboxamide] | < 500 nM | 500 to 2500 nM
COc1cccc(CNc2ncc3n(c2=O)[C@H](C(=O)NCc2cc4cnccc4[nH]2)CC3)c1 [Compound 39, (S)-N-((1H-pyrrolo[3,2-c]pyridin-2-yl)methyl)-3-((3-methoxybenzyl)amino)-4-oxo-4,6,7,8-tetrahydropyrrolo[1,2-a]pyrazine-6-carboxamide trifluoroacetate] | < 500 nM | 2500 to 10000 nM
Cc1cc2[nH]c(CNC(=O)[C@@H]3C[C@H](Cc4ccccc4)c4cnc(NC5CCC5)c(=O)n43)cc2cn1 [Compound 139, (6S,8S)-8-benzyl-3-(cyclobutylamino)-N-((6-methyl-1H-pyrrolo[3,2-c]pyridin-2-yl)methyl)-4-oxo-4,6,7,8-tetrahydropyrrolo[1,2-a]pyrazine-6-carboxamide] | < 500 nM | 10000 to 25000 nM
Cc1nc(N)ccc1CNC(=O)[C@@H]1CCc2c(Cl)nc(NCCC(F)F)c(=O)n21 [Compound 18, (S)-N-((6-amino-2-methylpyridin-3-yl)methyl)-1-chloro-3-((3,3-difluoropropyl)amino)-4-oxo-4,6,7,8-tetrahydropyrrolo[1,2-a]pyrazine-6-carboxamide] | < 500 nM | 2500 to 10000 nM
Cc1nc(N)ccc1CNC(=O)[C@@H]1CCc2cnc(NCc3nn(C)c4ccccc34)c(=O)n21 [Compound 170, (S)-N-((6-amino-2-methylpyridin-3-yl)methyl)-3-(((1-methyl-1H-indazol-3-yl)methyl)amino)-4-oxo-4,6,7,8-tetrahydropyrrolo[1,2-a]pyrazine-6-carboxamide trifluoroacetate] | < 500 nM | < 500 nM
Cc1cc(F)cc(CNc2nc(C3CCCCC3)c3n(c2=O)[C@H](C(=O)NCc2ccc(N)nc2C)CC3)c1 [Compound 176, (S)—N-((6-amino-2-methylpyridin-3-yl)methyl)-1-cyclohexyl-3-((3-fluoro-5-methylbenzyl)amino)-4-oxo-4,6,7,8-tetrahydropyrrolo[1,2-a]pyrazine-6-carboxamide DI-trifluoroacetate] | < 500 nM | 10000 to 25000 nM
Cc1cc(F)cc(CNc2ncc3n(c2=O)[C@H](C(=O)NCc2ccc([C@@H](C)N)cc2)CC3)c1 [Compound 173, (S)—N-(4-((R)-1-aminoethyl)benzyl)-3-((3-fluoro-5-methylbenzyl)amino)-4-oxo-4,6,7,8-tetrahydropyrrolo[1,2-a]pyrazine-6-carboxamide trifluoroacetate] | 2500 to 10000 nM | > 25000 nM
Cc1ccc(CNc2ncc3n(c2=O)[C@H](C(=O)NCc2ccc(N)nc2C)CC3)cc1C [Compound 38, (S)-N-((6-amino-2-methylpyridin-3-yl)methyl)-3-((3,4-dimethylbenzyl)amino)-4-oxo-4,6,7,8-tetrahydropyrrolo[1,2-a]pyrazine-6-carboxamide] | < 500 nM | < 500 nM
Cc1ccccc1CNc1ncc2n(c1=O)[C@H](C(=O)NCc1ccc(N)nc1C)CC2 [Compound 52, (S)-N-((6-amino-2-methylpyridin-3-yl)methyl)-3-((2-methylbenzyl)amino)-4-oxo-4,6,7,8-tetrahydropyrrolo[1,2-a]pyrazine-6-carboxamide] | < 500 nM | < 500 nM
Cc1ccc(F)c(CNc2nc(Cl)c3n(c2=O)[C@H](C(=O)NCc2cc4cnccc4[nH]2)CC3)c1 [Compound 21, (S)-N-((1H-pyrrolo[3,2-c]pyridin-2-yl)methyl)-1-chloro-3-((2-fluoro-5-methylbenzyl)amino)-4-oxo-4,6,7,8-tetrahydropyrrolo[1,2-a]pyrazine-6-carboxamide] | < 500 nM | 2500 to 10000 nM
Cc1cc(F)cc(CNc2ncc3n(c2=O)[C@H](C(=O)NC(C#N)c2cccc(Cl)c2)CC3)c1 (stereo partly drawn) [Compound 185, (6S)-N-((3-chlorophenyl)(cyano)methyl)-3-((3-fluoro-5-methylbenzyl)amino)-4-oxo-4,6,7,8-tetrahydropyrrolo[1,2-a]pyrazine-6-carboxamide] | 2500 to 10000 nM | 2500 to 10000 nM
Cc1nc(N)ccc1CNC(=O)[C@@H]1CCc2cnc(NCc3ccc4c(cnn4C)c3)c(=O)n21 [Compound 172] | < 500 nM | < 500 nM
COc1cc(C)cc(CNc2ncc3n(c2=O)[C@H](C(=O)NCc2cc4cnc(C)cc4[nH]2)CC3)c1 [Compound 51, (S)-3-((3-methoxy-5-methylbenzyl)amino)-N-((6-methyl-1H-pyrrolo[3,2-c]pyridin-2-yl)methyl)-4-oxo-4,6,7,8-tetrahydropyrrolo[1,2-a]pyrazine-6-carboxamide] | < 500 nM | 2500 to 10000 nM

Further lines, results first:

Ki [1] | Ki [2] | SMILES
< 500 nM | > 25000 nM | Cc1cc(C)cc(CNc2nc(Cl)c3n(c2=O)[C@H](C(=O)NCc2cc4cnccc4[nH]2)C[C@@H]3C)c1 [Compound 132, (6S,8S)-N-((1H-pyrrolo[3,2-c]pyridin-2-yl)methyl)-1-chloro-3-((3,5-dimethylbenzyl)amino)-8-methyl-4-oxo-4,6,7,8-tetrahydropyrrolo[1,2-a]pyrazine-6-carboxamide]
< 500 nM | > 25000 nM | Cc1cc2[nH]c(CNC(=O)[C@@H]3CCc4cnc(NCc5cccc(C(C)(C)O)c5)c(=O)n43)cc2cn1 [Compound 68, (S)-3-((3-(2-hydroxypropan-2-yl)benzyl)amino)-N-((6-methyl-1H-pyrrolo[3,2-c]pyridin-2-yl)methyl)-4-oxo-4,6,7,8-tetrahydropyrrolo[1,2-a]pyrazine-6-carboxamide]
< 500 nM | < 500 nM | Cc1cc(F)cc(CNc2ncc3n(c2=O)[C@H](C(=O)NCc2cc(Cl)ccc2-n2cnnn2)CC3)c1 [Compound 179, (S)—N-(5-chloro-2-(1H-tetrazol-1-yl)benzyl)-3-((3-fluoro-5-methylbenzyl)amino)-4-oxo-4,6,7,8-tetrahydropyrrolo[1,2-a]pyrazine-6-carboxamide]
< 500 nM | < 500 nM | O=C(NCc1cc2cnccc2[nH]1)[C@@H]1CCc2c(Cl)nc(NCCc3cccnc3)c(=O)n21 [Compound 241]
< 500 nM | 500 to 2500 nM | Cc1cc(C)cc(CNc2ncc3n(c2=O)[C@H](C(=O)NCc2cnc(N)c(Cl)c2)CC3)c1 [Compound 189, (S)-N-((6-amino-5-chloropyridin-3-yl)methyl)-3-((3,5-dimethylbenzyl)amino)-4-oxo-4,6,7,8-tetrahydropyrrolo[1,2-a]pyrazine-6-carboxamide]
< 500 nM | < 500 nM | CC(C)(C)[C@@H](Nc1ncc2n(c1=O)[C@H](C(=O)NCc1cc3c(s1)CNC3)CC2)c1ccccc1 [Compound 264, (S)-N-((5,6-dihydro-4H-thieno[2,3-c]pyrrol-2-yl)methyl)-3-(((R)-2,2-dimethyl-1-phenylpropyl)amino)-4-oxo-4,6,7,8-tetrahydropyrrolo[1,2-a]pyrazine-6-carboxamide trifluoroacetate]
< 500 nM | 2500 to 10000 nM | Cc1cccc(CNc2ncc3n(c2=O)[C@H](C(=O)N[C@H](C)c2ccc(N)nc2)CC3)c1 [Compound 187, (S)-N-((R)-1-(6-aminopyridin-3-yl)ethyl)-3-((3-methylbenzyl)amino)-4-oxo-4,6,7,8-tetrahydropyrrolo[1,2-a]pyrazine-6-carboxamide]
< 500 nM | > 25000 nM | Cc1cc(F)cc(CNc2nc(-c3cnn(C(F)F)c3)c3n(c2=O)[C@H](C(=O)NCc2ccc(N)nc2)CC3)c1 [Compound 216, (S)-N-((6-aminopyridin-3-yl)methyl)-1-(1-(difluoromethyl)-1H-pyrazol-4-yl)-3-((3-fluoro-5-methylbenzyl)amino)-4-oxo-4,6,7,8-tetrahydropyrrolo[1,2-a]pyrazine-6-carboxamide trifluoroacetate]
< 500 nM | 500 to 2500 nM | Cc1cc(F)cc(CNc2nc(C3CC3)c3n(c2=O)[C@H](C(=O)NCc2ccc(N)nc2C)CC3)c1 [Compound 210, (S)—N-((6-amino-2-methylpyridin-3-yl)methyl)-1-cyclopropyl-3-((3-fluoro-5-methylbenzyl)amino)-4-oxo-4,6,7,8-tetrahydropyrrolo[1,2-a]pyrazine-6-carboxamide trifluoroacetate]
